Series [1] is classed as in vitro ADME, human. An excerpt:
ELD607 is active in ARDS patient immune cells. Pulmonary neutrophilic inflammation and increased lung neutrophil elastase levels are common in ARDS patient lungs. We therefore evaluated whether ELD607 remained stable in BAL samples patients with ARDS caused by bacterial pneumonia. […] (FIG. 27, panel A).

The test system of a further series is αSMA. Briefly: TGFβ-induced myofibroblast differentiation of CCL-210 fibroblasts (αSMA). The class given is cell-based, human. To be noted: CCL-210, 7 days 10 ng/mL TGFβ, then ELD607 for 48 hours. The procedure:
FIG. 36A-36C show ELD607 reduces TGFβ-induced myofibroblast formation. FIG. 36A is a schematic showing fibroblast to myofibroblast formation and αSMA deposition. […] Data are mean data from Western blots in normal fibroblasts.
In vitro Methods: Fibroblasts were exposed to 10 nM TFGβ for 3-7 days as indicated. […] Fibroblasts were then fixed in paraformaldehyde, stained with primary a smooth muscle actin (αSMA) antibody, and imaged by confocal microscopy. Myofibroblasts were exposed to ELD607 without any TGFβ pre-treatment. In some cases, Western blotting was used to probe for αSMA.
ELD607 reverses myofibroblast differentiation. Increased alpha smooth muscle actin (αSMA) deposition is a hallmark of damaged IPF lungs, and is a common marker for identifying when fibroblasts turn into myofibroblasts—key drivers of fibrosis, and it is generally considered that less αSMA is beneficial (FIG. 36A). It was then determined whether ELD607 alters myofibroblast formation. The human lung fibroblast cell line CCL-210 was treated for 7 days with 10 ng/mL TGFβ to induce myofibroblast differentiation.

Series [2] deals with T1, human neutrophil elastase (Homo sapiens, UniProt P08246).
T1 sequence (P08246 30-267): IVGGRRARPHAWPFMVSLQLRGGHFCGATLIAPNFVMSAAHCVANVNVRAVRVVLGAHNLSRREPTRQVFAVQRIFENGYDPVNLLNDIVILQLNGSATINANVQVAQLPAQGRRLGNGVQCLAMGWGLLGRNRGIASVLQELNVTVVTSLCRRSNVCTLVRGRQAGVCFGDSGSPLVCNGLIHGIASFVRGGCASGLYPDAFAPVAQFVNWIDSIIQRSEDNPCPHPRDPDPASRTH
The class given is in vitro ADME. On the procedure: Peptides were exposed to NE over time, and the reaction was stopped by addition of sivelestat. HPLC was then performed in order to determine peptide stability. N=3-4 replicates per time point.
HEK293T cells were plated and incubated for 2 hours with Fluo-4 plus or minus ELD peptides, with fluorescent images taken every 30 seconds for 2-6 minutes at excitation/emission wavelengths of 488/530 nm. […] Candidate peptides ELD604, 607, 601, and 100 were tested for resistance against protease degradation, wherein the peptides were incubated with neutrophil elastase, treated with the elastase inhibitor sivelestat at various timepoints to halt ongoing reactions, and then analyzed by HPLC (FIG. 9).
Endogenous Orai1/store operated Ca^2+ influx have been extensively studied in HEK293T cells, so this cell type was used to understand ELD607-Orai1 interactions. […] Thapsigargin is a SERCA pump inhibitor that prevents uptake of cytosolic Ca^2+ into the endoplasmic reticulum. Thapsigargin is commonly used to stimulate Orai1/store operated Ca^2+ influx. […] Dynamic light scattering (DLS) was used to evaluate binding of ELD607 to peptides of Orai1 extracellular loops. […] Thus, it was concluded that ELD607 interacts with Orai1.

Another series has as its system HEK293 T cells. Briefly: Cytotoxicity in HEK293 T cells (calcein). The class given is cell-based. To be noted: 100 μM, 24 h. The procedure: FIG. 28 panels C and D show cell viability per arbitrary units (left) and transepithelial resistance (right) of vehicle vs. ELD607 before and after treatment.
ELD607 is non-toxic in vitro and in vivo. To investigate potential cytotoxic effects of ELD607, […] were exposed to 100 μM ELD607 for 24 h. Cytotoxicity was assessed by exposing cells to calcein to label live cells and fluorescence read by multi-plate reader. […] Primary human bronchial epithelial cultures were exposed to 1 mM ELD607 or vehicle control (saline) for 24 h. Cytotoxicity was assessed by confocal microscopy using calcein and propidium iodide to label live and dead cells respectively. […] Transepithelial resistance was also measured before and after treatment as a measure of epithelial integrity.

Series [3] has as its system P. aeruginosa, Staphylococcus aureus, and Haemophilus influenzae. Kind of series: Murine bacterial infection models (three organisms). The class given is in vivo, mice. The procedure:
Mice were dosed intranasally with P. aeruginosa (PA), S. aureus (Sa), or H. influenzae followed by vehicle (saline) or 0.5 mg/kg of ELD100 or ELD607 per mouse. FIG. 19 panels A, F, and K show total cell counts; FIG. 19 panels B, G, and L show BAL macrophages; FIG. 19 panels C, H, and M show BAL neutrophils; FIG. 19 panels D, I, and N show whole lung CFUs; and FIG. 19 panels E, J, and O show spleen CFUs. Top row, P. aeruginosa, middle row, S. aureus, bottom row, H. influenzae. * p<0.05 different from naïve mice; #p<0.05 different from infected mice.
ELD607 reduces neutrophilia and increases lung bacterial clearance in multiple murine bacterial infection models. Neutrophilia is a common feature of both Gram-positive and Gram-negative lung infections. Accordingly, further studies were performed with P. aeruginosa, Staphylococcus aureus, and Haemophilus influenzae (FIG. 19 panels B, C, G, H, L, and M). After infection with all three organisms, significant levels of bacteria were detected in the lung and spleen, and the infections increased total BAL cell numbers due to neutrophilia, while relative BAL macrophage numbers declined (FIG. 19 panels A-O). […] Moreover, 24 h after infection, about 10^9 CFUs could be detected in murine whole lung homogenate.

For the next series, the system named is HEK293T cells. Kind of series: Inhibition of Ca^2+ influx in HEK293T cells after pre-incubation of peptide in CF sputum. To be noted: peptide incubated 6 h in CF sputum, then HEK293T cells, thapsigargin. The class given is cell-based.
The mark [4] stands for this setting: 0.5 mg/kg intranasal, 24 h after infection.

No end group written: not given here.

For the sequence VHDIVNMLIRG [ELD607, VHDIVNMLIRG], the “stability in ARDS BAL” value in series [1] is recorded as “remained stable over 8 h”. For the same sequence, the “αSMA levels (western blot and immunofluorescence)” value in the series on αSMA was “significantly reduced”. Moreover, in series [2], the “stability against neutrophil elastase” value was “significant increase in stability” and the “stability relative to a6 after exposure to human neutrophil elastase” value is reported as “four times more stable”. The “cell viability (calcein)” value with HEK293 T cells is reported as “not significantly different to vehicle control”. Also, in series [3] (setting [4]), the lung macrophage levels result is “significantly normalized lung macrophage levels” and the neutrophilia result is on record as “reduced neutrophilia”. In addition, the “reduction in lung bacteria” value in series [3] (FIG. 19 panels D and I) was 3-5 log10. Moreover, in series [3] (FIG. 19 panels E and J), the “sepsis (spleen CFUs)” value was “significantly reduced sepsis”. For the same sequence, in series [3] (all three infections), the overall outcomes is “significantly improved outcomes”. In addition, the “inhibition of Ca^2+ influx after pre-exposure to CF sputum” value in the series with HEK293T cells is on record as “retained full functionality”.

The record behind these values is patent US20250114430A1, “MODIFIED PEPTIDOMIMETICS AND METHODS OF USE” (The University of North Carolina at Chapel Hill, priority 2021, published 2025).
